The text below walks through data of PubChem BioAssay (NCI).

Structures are written as SMILES.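 Exposure lasted 48 hours, with cells grown in 96-well plates and compounds tested at five concentrations. TGI denotes the concentration required for complete inhibition of growth.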

Common to all, as to assay: growth of human tumour cells (NCI), 48 h
The subject of test [1] is OVCAR-5 ovarian.
For test [2], the system named is COLO 205 colon.
Test [3] concerns SK-MEL-28 melanoma.
For test [4], the system named is RXF 393 renal.

Regarding `Cn1c2ncccc2n2c(=O)cc(O)cc12`, the TGI in test [1] is greater than 100 µM; in test [2], greater than 100 µM; in test [3], greater than 100 µM; in test [4], 75.5 µM.

As to `CNC(=O)O/N=C1\N(C)CN(c2ccccc2)C12CCN(CCCC(=O)c1ccc(F)cc1)CC2`, the TGI is greater than 100 µM in test [1], 33.2 µM in test [2], greater than 100 µM in test [3] and greater than 100 µM in test [4].

On to `COc1cc(-c2nc(N)c(C#N)c3c2CCS(=O)(=O)c2ccc(C)cc2-3)cc(OC)c1OC`, for which the TGI in test [1], in test [2] and in test [3] was greater than 100 µM each time.

In the case of `COc1ccc(C[C@H]2COC(=O)[C@@H]2Cc2ccc(Br)cc2)cc1OC`, the TGI is greater than 100 µM in test [1], 39.5 µM in test [2], greater than 100 µM in test [3] and greater than 62.8 µM in test [4].

For `N#CCCC1(CCC#N)S(=O)(=O)OCCOS1(=O)=O`, the TGI in test [1], in test [2], in test [3] and in test [4] was greater than 100 µM throughout.

As for `CCOC(=O)c1c2ccccc2n2c(=O)n(-c3ccc(OC)cc3)nnc12`, the TGI is greater than 100 µM in test [1], greater than 100 µM in test [2], greater than 100 µM in test [3] and 43.5 µM in test [4].

As for `O=C(c1ccccc1)c1ccc(N2C(=O)/C(=C/c3ccccc3S)N=C2c2ccccc2)c(N2C(=O)/C(=C/c3ccccc3S)N=C2c2ccccc2)c1`, the TGI in test [1], in test [2] and in test [3] was greater than 100 µM throughout.

For the compound `COC1(OC)CCN(Cc2ccccc2)C1=O`, the TGI was 31.8 µM in test [1], 12.5 µM in test [2], 23.3 µM in test [3] and 26.4 µM in test [4].

Regarding `Nc1c(F)c(F)c2c(c1F)N(CCCCCl)c1ccccc1S2`, the TGI in test [1], in test [2], in test [3] and in test [4] was greater than 100 µM throughout.

On to `NC1=NC(c2ccc(Cl)cc2)=CC(c2cccc(Cl)c2)S1` (stereo unspecified), for which the results for the TGI in test [1], in test [2] and in test [4] were greater than 100 µM, 33.1 µM and 77.1 µM, respectively.

Turning to `CC(=O)Oc1ccc2c(c1)[nH]c1c3ccc(OC(C)=O)cc3oc(=O)c21`, the TGI is greater than 100 µM in test [1], greater than 100 µM in test [2], greater than 100 µM in test [3] and 68.2 µM in test [4].

`O=C(c1ccccc1)c1ccc(N2C(=O)/C(=C/c3cccc(Oc4ccccc4)c3)N=C2c2ccccc2)c(N2C(=O)/C(=C/c3cccc(Oc4ccccc4)c3)N=C2c2ccccc2)c1`: the TGI was greater than 100 µM in test [1], 37.1 µM in test [2], greater than 100 µM in test [3] and greater than 100 µM in test [4].

Take `N#Cc1c(-c2ccccc2)cn(C(=O)c2ccccc2)c1N`: the TGI in test [1], in test [2] and in test [3] was greater than 100 µM throughout.

As for `C=C1N(C)c2ccc(S(=O)(=O)c3ccc4c(c3)C(C)(C)C(=C)N4C)cc2C1(C)C`, the TGI in test [1] is greater than 100 µM; in test [2], 29.8 µM; in test [3] it was greater than 100 µM.

Regarding `COC(C)=NCCC1=CCCCC1`, the TGI in test [1], in test [2], in test [3] and in test [4] was greater than 100 µM each time.

With `CCOC(=O)c1ccc(N=C2Sc3nc4ccccc4n3C2=Nc2ccc(C(=O)OCC)cc2)cc1`, the TGI in test [1] was greater than 100 µM; in test [2], greater than 100 µM; in test [3], greater than 100 µM; in test [4], 59.3 µM.

For the compound `Cc1cc(NS(=O)(=O)c2ccc(NO)cc2)no1`, the TGI in test [1], in test [2], in test [3] and in test [4] was greater than 100 µM in each case.

With `Cc1cn(CC(=S)NCCc2c[nH]c3ccccc23)c(=O)[nH]c1=O`, the TGI in test [1], in test [2], in test [3] and in test [4] was greater than 100 µM throughout.

As for `Cc1cc(-c2nc3cc(F)ccc3s2)ccc1N`, the TGI in test [1] is greater than 100 µM; in test [2] it was greater than 67.3 µM; in test [3] it was greater than 100 µM; in test [4], 52.4 µM.

Turning to `CC(C)CC(N)C(=O)NC(CNC(CCC(N)=O)C(=O)NC(CC(C)C)C(=O)NC(CC(C)C)C(=O)O)Cc1ccc2ccccc2c1` (stereo unspecified), the TGI in test [1], in test [2], in test [3] and in test [4] was greater than 10 µM in each case.

With `O=S(=O)(O)c1c(Cl)c(Cl)c(O)c2ncccc12`, the TGI in test [1] amounted to 42 µM; in test [2] it was 31.8 µM; in test [3] it was 39.8 µM; in test [4], 44.5 µM.

Regarding `COc1cc2c(cc1NC(=O)c1ccccc1)c1c(n2S(=O)(=O)c2ccccc2)CCN(S(=O)(=O)c2ccccc2)C1`, the TGI in test [1], in test [2], in test [3] and in test [4] was greater than 100 µM in each case.

For the compound `CN(C)CCC(=O)[C@@]1(O)CC[C@H]2[C@@H]3CC=C4C[C@@H](O)CC[C@]4(C)[C@H]3CC[C@@]21C`, the TGI in test [1] is greater than 100 µM; in test [2], 32.9 µM; in test [3], 33.2 µM; in test [4], 23.1 µM.

For the compound `COC(=O)[C@]12CC[C@H]3CN(S(=O)(=O)c4ccc(C)cc4)[C@H]([C@H]31)[C@H](c1ccco1)N2S(=O)(=O)c1ccc(C)cc1`, the TGI in test [1] is greater than 100 µM; in test [2] it was 45.3 µM; in test [3] it was greater than 100 µM; in test [4], 71.5 µM.

For the compound `O=C(Nn1c(-c2ccccc2)nc2ccccc2c1=O)c1cccc([N+](=O)[O-])c1`, the TGI in test [1], in test [2], in test [3] and in test [4] was greater than 100 µM throughout.

Consider `COc1cccc(CCn2c(N)c(-c3cc(Cl)cc(Cl)c3)c3ccc([N+](=O)[O-])cc3c2=O)c1`, for which the TGI is greater than 100 µM in test [1], 4.05 µM in test [2] and greater than 100 µM in test [3].

Regarding `Cc1cc2c(cc1Cl)SC(NNCCO)=NS2(=O)=O`, the TGI in test [2], in test [3] and in test [4] was greater than 100 µM in each case.
